Common to all, as to format: functional
Common to all, as to conditions: read-out: Activity

Test [1] has as its system PC-12. Kind of test: Neuroprotective activity against amyloid beta(25-35)-induced cell death in rat PC12 cells assessed as cell viability at 1 uM incubated for 2 hrs prior to amyloid beta(25-35)-challenge measured after 24 hrs by MTT assay (reference value: 38.8 +/- 1%).
Test [2] has as its system PC-12. Kind of test: Neuroprotective activity against amyloid beta(25-35)-induced cell death in rat PC12 cells assessed as cell viability at 10 uM incubated for 2 hrs prior to amyloid beta(25-35)-challenge measured after 24 hrs by MTT assay (reference value: 38.8 +/- 1%). On the technique in general: Formazan colour is commonly taken as a measure of viable cells.
Test [3] deals with PC-12. Kind of test: Neuroprotective activity against H2O2-induced cell death in rat PC12 cells assessed as cell viability at 1 uM incubated for 2 hrs prior to H2O2-challenge measured after 24 hrs by MTT assay (reference value: 53.7 +/- 1.7%).
The subject of test [4] is PC-12. Kind of test: Neuroprotective activity against H2O2-induced cell death in rat PC12 cells assessed as cell viability at 10 uM incubated for 2 hrs prior to H2O2-challenge measured after 24 hrs by MTT assay (reference value: 53.7 +/- 1.7%).
In test [5] the test system is PC-12. Kind of test: Neuroprotective activity against amyloid beta(25-35)-induced cell death in rat PC12 cells assessed as cell viability at 1 uM incubated for 2 hrs prior to amyloid beta(25-35)-challenge measured after 24 hrs by MTT assay (reference value: 34.8 +/- 0.8%).
In test [6] the test system is PC-12. Nature of the test: Neuroprotective activity against amyloid beta(25-35)-induced cell death in rat PC12 cells assessed as cell viability at 10 uM incubated for 2 hrs prior to amyloid beta(25-35)-challenge measured after 24 hrs by MTT assay (reference value: 34.8 +/- 0.8%).
Test [7] deals with PC-12. Kind of test: Neuroprotective activity against H2O2-induced cell death in rat PC12 cells assessed as cell viability at 1 uM incubated for 2 hrs prior to H2O2-challenge measured after 24 hrs by MTT assay (reference value: 53.1 +/- 1.1%).
Test [8] has as its system PC-12. Kind of test: Neuroprotective activity against H2O2-induced cell death in rat PC12 cells assessed as cell viability at 10 uM incubated for 2 hrs prior to H2O2-challenge measured after 24 hrs by MTT assay (reference value: 53.1 +/- 1.1%).

Turning to `C/C=C(\C)C(=O)O[C@H]1c2cc(OC)c(OC)c(OC)c2-c2c(cc3c(c2OC)OCO3)[C@H](OC(=O)CC)[C@H](C)[C@H]1C`, the viability at 1 µM in the test with PC-12 [1] was determined as 43.1%; with PC-12 [3], 54.6%. Further, the viability at 10 µM with PC-12 [2] was 39.3%; in the test with PC-12 [4] it was 60.7%.
The corresponding values for `COc1cc2c(c(OC)c1OC)-c1c(cc3c(c1OC)OCO3)[C@H](O)[C@H](C)[C@H](C)C2` [ISOGOMISIN O] are 38%, 48.8%, 33.3% and 55.8%.
Regarding `COc1cc2c(c(OC)c1OC)-c1c(cc3c(c1OC)OCO3)[C@H](OC(=O)/C=C/c1ccccc1)[C@H](C)[C@H](C)C2` [KADSUPHILINS A], the viability at 1 µM in the test with PC-12 [5] was 35.3%; in the test on PC-12 [7], 53%. Also, the figures for the viability at 10 µM with PC-12 [6] and in the test on PC-12 [8] were 32.3% and 52.5%, respectively.
As for `COc1cc2c(c(OC)c1OC)-c1c(cc3c(c1OC)OCO3)[C@H](OC(C)=O)[C@H](C)[C@H](C)C2` [KADSURIN], the viability at 1 µM with PC-12 [5] was determined as 35.1%; with PC-12 [7], 57.2%. In addition, the values for the viability at 10 µM with PC-12 [6] and in the test with PC-12 [8] were 32.9% and 44%, respectively.
With `C/C=C(\C)C(=O)Oc1c(OC)c(OC)cc2c1-c1c(cc(OC)c(OC)c1OC)[C@H](O)[C@H](C)[C@H](C)C2` [METHYL SCHISANTHERIN F], the viability at 1 µM amounted to 41.4% with PC-12 [1] and 50.4% in the test on PC-12 [3]. Also, the values for the viability at 10 µM with PC-12 [2] and in the test on PC-12 [4] were 41% and 53.4%, respectively.
The corresponding values for `C/C=C(/C)C(=O)O[C@H]1c2cc3c(c(OC)c2-c2c(cc(OC)c(OC)c2OC)[C@H](OC(=O)/C(C)=C\C)[C@@H](C)[C@H]1C)OCO3` [POLYSPERLIGNAN A] are 39.9%, 55.8%, 46.4% and 58.2%.
Consider `C/C=C(\C)C(=O)O[C@H]1c2cc3c(c(OC)c2-c2c(cc(OC)c(OC)c2OC)[C@H](OC(C)=O)[C@@H](C)[C@H]1C)OCO3` [POLYSPERLIGNAN B], for which the viability at 1 µM in the test with PC-12 [5] came to 36.4%; with PC-12 [7], 55.9%. Further, the viability at 10 µM in the test on PC-12 [6] is 34.1%; with PC-12 [8], 58.9%.
For the molecule `C/C=C(/C)C(=O)O[C@H]1c2cc3c(c(OC)c2-c2c(cc(OC)c(OC)c2OC)[C@H](OC(=O)/C=C/c2ccccc2)[C@@H](C)[C@H]1C)OCO3` [POLYSPERLIGNAN E], the viability at 1 µM in the test with PC-12 [1] is 39%; with PC-12 [3] it was 57.1%. Also, the results for the viability at 10 µM with PC-12 [2] and in the test with PC-12 [4] were 39.7% and 58.9%, respectively.
Taken in the same sequence, the figures for `COc1cc2c(c(OC)c1OC)-c1c(cc3c(c1OC)OCO3)[C@H](OC(=O)/C=C\c1ccccc1)[C@H](C)[C@H](C)C2` [POLYSPERLIGNAN F] were 38.4%, 55.2%, 36.4% and 58.5%.
The corresponding values for `C/C=C(/C)C(=O)Oc1c(OC)c(OC)cc2c1-c1c(cc(OC)c(OC)c1OC)[C@H](O)[C@H](C)[C@H](C)[C@H]2OC(=O)/C(C)=C\C` [POLYSPERLIGNAN I] are 39%, 53.3%, 41.2% and 53.7%.
Turning to `COc1cc2c(c(OC)c1OC)-c1c(cc3c(c1OC)OCO3)[C@H](O)[C@@H](C)[C@@H](C)C2` [YUNNANKADSURIN B], the viability at 1 µM with PC-12 [5] was found to be 35.2%; with PC-12 [7], 51%. Also, the figures for the viability at 10 µM in the test on PC-12 [6] and in the test on PC-12 [8] were 33.2% and 53.3%, respectively.
